Test results: patent publication US20080020977A1, “Use of Fullerenes to Oxidize Reduced Redox Proteins” (priority 2005, published 2008)

Assays:
mice = conditions: oral, about 0.5 mg/kg/day, cited from earlier work
cytochrome c = experiment: Oxidation state of cytochrome c in the xanthine/xanthine oxidase system (absorbance at 550 nm); assay type: biochemical; conditions: substituted fullerene added at time zero; versus blank without fullerene; data not shown
Experimental: The reduction of cytochrome c was performed by employing the xanthine/xanthine oxidase system. The reaction was initiated by the addition of xanthine oxidase (7.5×10^−3 units) to an incubation mixture containing 50 mM potassium phosphate, 0.1 mM EDTA, 0.01 mM cytochrome c, and 0.05 mM xanthine. Xanthine oxidase catalyzed the formation of superoxide radicals, which then reduced cytochrome c to the ferrous form. Reduction of cytochrome c was followed by recording the corresponding increase in the absorbance at 550 nm, using the molar absorption coefficients of 9 mmol^−1cm^−1 and 27.7 mmol^−1cm^−1 for the oxidized (ferric) and reduced (ferrous) forms, respectively. All assays were performed at room temperature. A volume of 3 mL was used in each experiment.
The effect of fullerenes on the oxidation state of cytochrome c was studied using substituted fullerenes C3 and DF-1, described above, wherein the substituted fullerene was added to the reaction mixture at 5, 10, or 15 minutes after addition of xanthine oxidase. Results are shown in FIG. 11, with time=0 for each run being the moment when the substituted fullerene was added. In the negative control, without fullerene (blank), reduction of cytochrome c (increase of absorbance at 550 nm) can be seen over 600 sec. […]

For (C60(>C(COOH)2)3) [C3], which mean survival (mice; controls 23.5+/−5.5 months) is on record?
The mean survival was 28.7+/−3.3 months.

What about the “increase in mean survival relative to controls” value (mice; p=0.033) of the same substance?
The value was ~20%.

What about the “extent and rate of reduction of cytochrome c (increase of absorbance at 550 nm)” value (cytochrome c) of the same substance?
The value was “reduced”.
